Assay [1] deals with dopamine transporter deficient (DAT-/-) mice. Put plainly: Open field locomotor activity, DAT-/- mice (hyperlocomotion). It is filed as in vivo, mouse. The settings on record: subcutaneous, solriamfetol 10, 30 or 100 mg/kg, amphetamine 2 mg/kg. The protocol: (§1) Open field locomotor activity was assessed using an automated Omnitech Digiscan (AccuScan Instruments, Columbus, OH).

The target in assay [2] is T1, human norepinephrine transporter (hNET) (Homo sapiens, UniProt P23975). Set-up: host or cells: unnamed cell lines or membrane preparations. The settings on record: data from published literature (footnote b); cited from earlier work.
The test system of another assay is wild type mice. The experiment in a line: Open field locomotor activity, wild type mice. In kind it is in vivo, mouse. Conditions: subcutaneous, solriamfetol 10, 30 or 100 mg/kg, amphetamine 2 mg/kg. The protocol:
as §1

The target in assay [3] is T1, human norepinephrine transporter (hNET). Put plainly: hNET inhibition, in vitro binding and functional studies.
Assay [4] has as its system ventral tegmental area (VTA) dopaminergic neurons. The experiment in a line: Firing frequency of VTA dopaminergic neurons in acute brain slices (electrophysiology). In kind it is cell-based, mouse. Conditions: for firing frequency of VTA neurons: acute slices from male C57Bl6/J mice, current clamp; for reduction in firing frequency after pre-treatment with D2 receptor antagonist sulpiride: acute slices. The protocol:
The firing frequency of ventral tegmental area (VTA) dopaminergic neurons (n=4-8 cells/experiment) in acute slice preparations was recorded using electrophysiology and analyzed. Brain slices (250 μm thickness) containing VTA from male C57Bl6/J mice were prepared using standard procedures. Slices were perfused with artificial cerebrospinal fluid (aCSF) and spontaneous action potentials were recorded from dopaminergic neurons in current clamp conditions using […] and pClamp10 (Axon Instruments; Revel, Proc. Natl. Acad. Sci. USA 108(20):8485-90 (2011)). […] In addition, the reduction in firing frequency by solriamfetol or TAAR1 agonist RO5256390 was antagonized by pre-treatment with the D2 receptor antagonist sulpiride (FIG. 3A-3B).

Assay [5] can be described thus: Binding assay panel for additional targets.
Assay [6] deals with human dopamine transporter (hDAT) (Homo sapiens, UniProt Q01959). Put plainly: hDAT inhibition, in vitro binding and functional studies.

Like-named read-outs stand apart in the source and are kept apart here. Some results are limits rather than exact numbers.

The values that follow come from US20260256729A1, “CARBAMOYL PHEN[…] AS TAAR1 AGONISTS” (AXSOME THERAPEUTICS, INC., priority 2022, published 2026).

T1 sequence (P23975 whole entry): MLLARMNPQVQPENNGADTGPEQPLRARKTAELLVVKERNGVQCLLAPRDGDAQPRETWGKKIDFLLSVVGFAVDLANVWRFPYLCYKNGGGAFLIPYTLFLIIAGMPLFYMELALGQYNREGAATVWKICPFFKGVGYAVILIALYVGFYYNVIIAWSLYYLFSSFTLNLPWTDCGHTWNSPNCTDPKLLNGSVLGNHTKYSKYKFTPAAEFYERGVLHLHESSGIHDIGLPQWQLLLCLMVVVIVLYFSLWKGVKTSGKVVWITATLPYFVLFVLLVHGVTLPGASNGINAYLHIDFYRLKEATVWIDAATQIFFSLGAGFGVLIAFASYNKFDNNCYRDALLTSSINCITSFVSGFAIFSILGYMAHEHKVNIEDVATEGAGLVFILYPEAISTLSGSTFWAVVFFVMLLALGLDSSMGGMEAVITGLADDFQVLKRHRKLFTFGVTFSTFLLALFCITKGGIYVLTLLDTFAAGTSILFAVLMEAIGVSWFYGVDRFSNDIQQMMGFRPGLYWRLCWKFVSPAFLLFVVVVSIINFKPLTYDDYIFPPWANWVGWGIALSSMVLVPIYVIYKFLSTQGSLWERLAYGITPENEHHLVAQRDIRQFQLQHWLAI
Chain of human dopamine transporter (hDAT) (Q01959 whole entry): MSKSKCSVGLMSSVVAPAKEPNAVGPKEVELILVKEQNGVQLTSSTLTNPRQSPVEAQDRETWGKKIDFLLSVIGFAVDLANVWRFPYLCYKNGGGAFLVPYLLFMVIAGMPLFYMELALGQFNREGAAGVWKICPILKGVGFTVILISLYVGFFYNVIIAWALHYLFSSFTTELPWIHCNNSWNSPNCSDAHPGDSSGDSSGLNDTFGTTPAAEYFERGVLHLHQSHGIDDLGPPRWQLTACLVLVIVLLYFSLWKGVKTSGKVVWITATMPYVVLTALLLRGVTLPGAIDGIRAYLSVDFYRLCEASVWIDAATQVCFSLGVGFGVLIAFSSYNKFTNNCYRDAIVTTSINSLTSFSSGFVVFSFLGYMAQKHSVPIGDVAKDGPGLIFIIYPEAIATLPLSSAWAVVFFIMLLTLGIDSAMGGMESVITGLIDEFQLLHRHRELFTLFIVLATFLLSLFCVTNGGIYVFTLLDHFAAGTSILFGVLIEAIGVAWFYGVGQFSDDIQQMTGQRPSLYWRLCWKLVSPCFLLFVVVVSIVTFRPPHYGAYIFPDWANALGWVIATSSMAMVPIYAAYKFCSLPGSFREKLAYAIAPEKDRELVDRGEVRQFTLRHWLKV

Consider `CCN(C[C@H]1COC(N)=N1)c1ccccc1` [ROS166017], for which the “hyperlocomotion (total distance traveled in 90 minutes)” value (from here on “hyperlocomotion”) in assay [1] was “reduced hyperlocomotion”.

In general, IC50 refers to the point on the concentration scale where inhibition reaches its midpoint. Take (+)Methamphetamine: in assay [2], the IC50 was 0.0013 µM.

In the case of `CC(N)Cc1ccccc1` (centres unmarked) [amphetamine], the “locomotor activity (total distance traveled in 90 minutes)” value with wild type mice is reported as “increase locomotor activity”. Besides, the “hyperlocomotion” value in assay [1] is listed as “reduced hyperlocomotion”.

In assay [3], `NC(=O)C[S+]([O-])C(c1ccccc1)c1ccccc1` (centres unmarked) [Modafinil] registered a half-maximal inhibitory concentration (IC50) greater than 100 µM.

Consider `CC[C@@H](C[C@H]1COC(N)=N1)c1ccccc1` [RO5256390], for which, in assay [4], the “firing frequency of VTA neurons” value is recorded as “inhibited firing frequency by VTA neurons in a dose-dependent manner” and the “reduction in firing frequency after pre-treatment with D2 receptor antagonist sulpiride” value is reported as “antagonized”.

On to `NC(=O)OC[C@H](N)Cc1ccccc1` [Solriamfetol, (R)-2-amino-3-phenylpropyl carbamate], for which the concentration for half-maximal inhibition (IC50) in assay [3] was determined as 14.4 µM. In assay [5], the “additional targets in binding assay panel” value is recorded as “no additional targets were identified”. Besides, the “locomotor activity (total distance traveled in 90 minutes)” value with wild type mice is reported as “did not increase locomotor activity”. Also, the concentration for half-maximal inhibition (IC50) in assay [6] is 3.21 µM. The “hyperlocomotion” value in assay [1] is reported as “reduced hyperlocomotion”. In addition, in assay [4], the “firing frequency of VTA neurons” value is “inhibited firing frequency by VTA neurons in a dose-dependent manner” and the “reduction in firing frequency after pre-treatment with D2 receptor antagonist sulpiride” value is “antagonized”.
